Data set [1] is described as follows: Drug uptake in human A2780 cells at 500 nM after 6 hrs by confocal imaging analysis. The data set is classed as ADME, cell-based. To be noted: a2780, 6 h, 0.5 µM.
Data set [2] concerns A2780. The data set can be described thus: Cytotoxicity against human A2780 cells assessed as cell growth inhibition incubated for 72 hrs by CCK-8 assay. The data set is classed as functional, cell-based. Conditions: A2780, 72 h. In general terms: Tetrazolium dyes change colour on reduction, which living cells bring about.
A short description of data set [3]: Drug uptake in human A2780 cells at 500 nM within 1 to 6 hrs by confocal imaging analysis. It is filed as ADME, cell-based. To be noted: a2780, 0.5 µM, time 1-6 hrs.
In data set [4] the target is T1, Nicotinamide phosphoribosyltransferase (Homo sapiens, UniProt P43490). Nature of the data set: Inhibition of NAMPT catalytic domain (unknown origin) using NAM as substrate preincubated for 5 mins followed by substrate addition.
Target sequence in this assay (P43490 whole entry, the tested form may be a part): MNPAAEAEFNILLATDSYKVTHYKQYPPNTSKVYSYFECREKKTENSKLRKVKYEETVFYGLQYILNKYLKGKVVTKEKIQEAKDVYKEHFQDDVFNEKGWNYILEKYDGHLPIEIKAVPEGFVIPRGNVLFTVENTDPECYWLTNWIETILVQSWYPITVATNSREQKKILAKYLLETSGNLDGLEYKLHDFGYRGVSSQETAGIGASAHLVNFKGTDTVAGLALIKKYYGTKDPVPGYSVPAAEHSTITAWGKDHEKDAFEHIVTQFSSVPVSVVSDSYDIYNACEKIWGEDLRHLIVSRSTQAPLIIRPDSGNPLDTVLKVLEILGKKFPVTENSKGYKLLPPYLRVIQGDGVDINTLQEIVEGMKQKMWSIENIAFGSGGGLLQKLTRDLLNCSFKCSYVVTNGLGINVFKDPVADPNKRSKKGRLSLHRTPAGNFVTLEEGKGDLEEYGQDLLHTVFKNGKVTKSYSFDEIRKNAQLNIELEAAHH
The target in data set [5] is T1, Nicotinamide phosphoribosyltransferase. Nature of the data set: Induction of NAMPT degradation in human A2780 cells at 30 nM. The data set is classed as cell-based. Conditions: time 1-24 hrs, TDE = time-dependent effect.
Target sequence in this assay (P43490 whole entry, looked up, the tested form may be a part): as the sequence (P43490 whole entry, the tested form may be a part) above
Data set [6] in a line: Toxicity in BALB/c nude mouse xenografted with human A2780 cells at 10 to 30 mg/kg, ip administered once daily for 14 days by caliper method. The data set is classed as organism-based. Conditions: in vivo, 336 h, dose 10-30 mg/kg, time 14 day.
The target of data set [7] is T1, Nicotinamide phosphoribosyltransferase. The data set can be described thus: Induction of NAMPT degradation in human A2780 cells after 24 hrs by Western blot analysis. It is filed as cell-based. In general terms: In western blotting, separated proteins are transferred to a membrane and probed.
The nature of data set [8]: Tmax in Sprague-Dawley rat at 30 mg/kg, ip measured upto 24 hrs by LC-MS/MS analysis. The data set is classed as ADME, organism-based. Conditions: in vivo.
Data set [9] addresses von Hippel-Lindau disease tumor suppressor (Homo sapiens) (UniProt P40337). Nature of the data set: Binding affinity to VHL in human A2780 cells assessed as change in melting temperature at 10 uM after 2 hrs by CESTA. It is filed as cell-based.
The test system of data set [10] is A2780. The data set can be described thus: Antitumor activity against human A2780 cells xenografted in BALB/c nude mouse assessed as tumor growth inhibition at 30 mg/kg, ip administered once daily for 14 days by caliper method. Conditions: A2780, 336 h, time 14 day, read-out: TGI. It is filed as functional. On the technique in general: In xenograft studies the graft and the host belong to different species.

Data set [11] deals with T1, Nicotinamide phosphoribosyltransferase. The data set can be described thus: Induction of NAMPT degradation in human A2780 cells at greater than 50 nM after 24 hrs by Western blot analysis. It is filed as cell-based.
Target sequence in this assay (P43490 whole entry, looked up, the tested form may be a part): as the sequence (P43490 whole entry, the tested form may be a part) above
A short description of data set [12]: Drug uptake in human A2780 cells at 1 uM after 30 mins by immunostaining based assay. The data set is classed as ADME, cell-based. Conditions: a2780, 0.5 h.
Data set [13] concerns the target T1, Nicotinamide phosphoribosyltransferase. Nature of the data set: Induction of NAMPT degradation in human A2780 cells at 30 nM after 24 hrs. The data set is classed as cell-based.
Target sequence in this assay (P43490 whole entry, looked up, the tested form may be a part): as the sequence (P43490 whole entry, the tested form may be a part) above
Data set [14] can be described thus: Drug uptake in human A2780 cells at 500 nM within 1 to 6 hrs by immunostaining based assay. It is filed as ADME, cell-based. To be noted: a2780, 0.5 µM, time 1-6 hrs.
Data set [15] is described as follows: Photostability of compound in PBS at pH 7.4. To be noted: buffer. The data set is classed as physicochemical.
The subject of a further data set is HUVEC. The data set can be described thus: Cytotoxicity against HUVEC assessed as cell growth inhibition incubated for 72 hrs by CCK-8 assay. The data set is classed as toxicity, cell-based. To be noted: human.
Another data set has as its system Mus musculus. The data set can be described thus: In vivo induction of NAMPT degradation in human A2780 cells xenografted in BALB/c mouse at 10 to 30 mg/kg, ip administered once daily for 14 days by immunofluorescence analysis. The data set is classed as functional, organism-based. Conditions: dose 10-30 mg/kg, time 14.0 day.
In data set [16] the test system is A2780. Nature of the data set: Antitumor activity against human A2780 cells xenografted in ip dosed BALB/c nude mouse administered once daily for 14 days by caliper method. The data set is classed as functional, organism-based. To be noted: dose 10-30 mg/kg, time 14.0 day, DDE = dose-dependent effect.
The nature of data set [17]: AUC (0 to infinity) in Sprague-Dawley rat at 30 mg/kg, ip measured upto 24 hrs by LC-MS/MS analysis. It is filed as ADME, organism-based. Also noted: time < 24 hrs, dose 30 mg/kg, route ip. To be noted: in vivo.
The target of data set [18] is T1, Nicotinamide phosphoribosyltransferase. The data set can be described thus: Induction of NAMPT degradation in human A2780 cells at 30 nM after 24 hrs by Western blot analysis. It is filed as cell-based.
Target sequence in this assay (P43490 whole entry, looked up, the tested form may be a part): as the sequence (P43490 whole entry, the tested form may be a part) above
The target is the same in data set [19]. Nature of the data set: Induction of NAMPT degradation in human A2780 cells assessed as downregulation of NAD+ levels at 4.1 nM incubated for 24 hrs […]. It is filed as cell-based.
Target sequence in this assay (P43490 whole entry, looked up, the tested form may be a part): as the sequence (P43490 whole entry, the tested form may be a part) above
The subject of data set [20] is A2780. The data set can be described thus: Antitumor activity against human A2780 cells xenografted in BALB/c nude mouse assessed as tumor growth inhibition at 10 mg/kg, ip administered once daily for 14 days by caliper method. The data set is classed as functional. To be noted: A2780, 336 h, time 14 day, read-out: TGI.
Data set [21] can be described thus: Cmax in Sprague-Dawley rat at 30 mg/kg, ip measured upto 24 hrs by LC-MS/MS analysis. The data set is classed as ADME, organism-based. The arrangement: dose 30 mg/kg, time < 24 hrs, route ip. To be noted: in vivo.
In data set [22] the target is T1, Nicotinamide phosphoribosyltransferase. The data set can be described thus: Induction of NAMPT degradation in human A2780 cells at 30 nM incubated for 24 hrs in presence of MG132. The data set is classed as cell-based.
Target sequence in this assay (P43490 whole entry, looked up, the tested form may be a part): as the sequence (P43490 whole entry, the tested form may be a part) above
Data set [23] shares this target. The data set can be described thus: Binding affinity to NAMPT in human A2780 cells by flow cytometry analysis. The data set is classed as cell-based. Conditions: time 0.5-24 hrs.
The nature of data set [24]: MRT (0 to infinity) in Sprague-Dawley rat at 30 mg/kg, ip measured upto 24 hrs by LC-MS/MS analysis. It is filed as ADME, organism-based. To be noted: in vivo.
The subject of data set [25] is A2780. Nature of the data set: Cytotoxicity against human A2780 cells assessed as cell growth inhibition incubated for 72 hrs in presence of (2S,4R)-1-(2-amino-3,3-dimethyl-butanoyl)-4-hydroxy-N-[(1S)-1-[4-(4-methylthiazol-5-yl)phenyl]ethyl]pyrrolidine-2-carboxamide by CCK-8 assay. The data set is classed as functional, cell-based. Conditions: A2780, 72 h.
Data set [26] has as its target T1, Nicotinamide phosphoribosyltransferase. Nature of the data set: Induction of NAMPT degradation in human A2780 cells at 30 nM after 1 hr. It is filed as cell-based.
The target is the same in data set [27]. Nature of the data set: Binding affinity to NAMPT in human A2780 cells assessed as change in melting temperature at 10 uM after 2 hrs by CESTA. The data set is classed as cell-based.
Data set [28] in a line: Half life in Sprague-Dawley rat at 30 mg/kg, ip measured upto 24 hrs by LC-MS/MS analysis. The data set is classed as ADME, organism-based. Conditions: in vivo.
Data set [29] addresses T1, Nicotinamide phosphoribosyltransferase. The data set can be described thus: Induction of NAMPT degradation in human A2780 cells at 50 nM after 24 hrs by Western blot analysis. It is filed as cell-based.
The target is the same in data set [30]. Nature of the data set: Induction of NAMPT degradation in human A2780 cells at 100 nM after 24 hrs by Western blot analysis. It is filed as cell-based.
Data set [31] can be described thus: Toxicity in BALB/c nude mouse xenografted with human A2780 cells at 30 mg/kg, ip administered once daily for 14 days by caliper method. It is filed as organism-based. Conditions: in vivo, 336 h, time 14 day.

The results in this text go back to ChEMBL document CHEMBL5150057, “Making Protein Degradation Visible: Discovery of Theranostic PROTACs for Detecting and Degrading NAMPT” (J Med Chem, 2022).

Each structure is given as a SMILES string. Activity calls are given as the source filed them. No cut-off for these calls is given here.

von Hippel-Lindau disease tumor suppressor (Homo sapiens), sequence (P40337 whole entry, looked up): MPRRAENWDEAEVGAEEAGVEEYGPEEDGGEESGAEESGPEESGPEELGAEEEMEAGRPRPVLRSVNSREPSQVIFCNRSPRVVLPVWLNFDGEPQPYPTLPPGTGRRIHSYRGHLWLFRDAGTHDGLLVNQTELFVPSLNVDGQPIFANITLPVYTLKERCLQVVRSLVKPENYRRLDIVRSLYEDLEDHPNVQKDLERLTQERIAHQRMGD

Usually IC50 stands for the concentration at which inhibition is half-maximal. On to `CCCn1c(=O)c(-c2ccc(C(=O)NCc3cccnc3)cc2)nc2ccc(NC(=O)CCCCCCCCCCC(=O)N[C@H](C(=O)N3C[C@@H](O)C[C@@H]3C(=O)N[C@@H](C)c3ccc(-c4scnc4C)cc3)C(C)(C)C)cc21`, for which the Drug uptake entry in data set [1] and in data set [3] was “Active” throughout. Also, the IC50 in the data set on A2780 [2] was determined as 0.143 µM.

On to `CCCn1c(=O)c(-c2ccc(C(=O)NCc3cccnc3)cc2)nc2ccc(NC(=O)CCCCC(=O)N[C@H](C(=O)N3C[C@H](O)C[C@H]3C(=O)N[C@@H](C)c3ccc(-c4scnc4C)cc3)C(C)(C)C)cc21`, for which the IC50 with A2780 [2] amounted to 0.088 µM.

In general, DC50 refers to the concentration at which degradation of the target reaches its halfway point. A high value points to a less potent degrader. For orientation: Tmax means the time at which the peak concentration occurs. One may read the ΔTm as the shift of the melting midpoint relative to a reference. For orientation: AUC(0-inf) means total exposure, with the tail of the curve extrapolated. Higher therefore signals high exposure. What is called Cmax is the maximum level reached in the sampled fluid or tissue. By MRT inf is commonly meant the average time that molecules of a dose stay in the body. By half-life is commonly meant how long it takes for the measured level to halve. High values mean slow decline, low ones rapid decline. For the compound `CCCn1c(=O)c(-c2ccc(C(=O)NCc3cccnc3)cc2)nc2ccc(NC(=O)CCCCCCCCCCC(=O)N[C@H](C(=O)N3C[C@H](O)C[C@H]3C(=O)N[C@@H](C)c3ccc(-c4scnc4C)cc3)C(C)(C)C)cc21`, the IC50 in data set [4] turned out to be 0.0419 µM; with A2780 [25], 0.1 µM; with A2780 [2], 0.0121 µM. In addition, the Activity entry in [5] was “Tde”; in data set [6], “Non-Toxic”; in data set [7] (DDE = dose-dependent effect), “Dde”; with HUVEC, “Non-Toxic”; in the data set on A2780 [16], “Dde”. In addition, in data set [7], the DC50 was determined as 0.0084 µM. The Tmax in [8] stood at 4 h. Moreover, the figures for the ΔTm in [9] and in data set [27] were greater than 2.62 °C and 5.11 °C, respectively. The inhibition in vivo at 30 mg/kg with A2780 [10] stood at 73%. For the same compound, the outcome (in data set [11]; in data set [13]; in the data set with Mus musculus; in data set [18]; in data set [19]; in data set [22]) was Active. The result in [23] and in data set [26] was Active. The Drug uptake entry in data set [12] and in [14] was “Active” each time. Besides, in [15], the Stability result is reported as “Stable”. Also, the area under the curve AUC(0-inf) in data set [17] turned out to be 1110 ng·h/mL. In addition, the inhibition in vivo at 10 mg/kg with A2780 [20] came to 53%. Also, in [21], the peak level (Cmax) was 175 ng/mL. In data set [24], this compound came in with a mean residence time MRT inf of 12.7 h. The same compound gave a half-life in data set [28] of 9.81 h.

Regarding `CCCn1c(=O)c(-c2ccc(C(=O)NCc3cccnc3)cc2)nc2ccc(NC(=O)CCCCCCCCC(=O)N[C@H](C(=O)N3C[C@H](O)C[C@H]3C(=O)N[C@@H](C)c3ccc(-c4scnc4C)cc3)C(C)(C)C)cc21`, the result in data set [29] and in [18] was Active. Besides, the IC50 in the data set with A2780 [2] was found to be 0.014 µM.

`CCCn1c(=O)c(-c2ccc(C(=O)NCc3cccnc3)cc2)nc2ccc(NC(=O)CCCCCCC(=O)N[C@H](C(=O)N3C[C@H](O)C[C@H]3C(=O)N[C@@H](C)c3ccc(-c4scnc4C)cc3)C(C)(C)C)cc21`: the result in data set [18] and in [30] was Active. Besides, the IC50 with A2780 [2] was found to be 0.0208 µM.

In the case of `CCCn1c(=O)c(-c2ccc(C(=O)NCc3cccnc3)cc2)nc2ccccc21`, the IC50 in [4] was found to be 0.0578 µM; in the data set with A2780 [2], 0.099 µM. The Activity entry is “Non-Toxic” in the data set on HUVEC and “Toxic” in data set [31].
